Like-named read-outs stand apart in the source and are kept apart here.
Columns and labels:
[1] = Pharmacokinetic studies in plasma and brain of mice after i.p. injection; type: in vivo, mouse; conditions: for Cmax (mean ± SEM) Brain / B:P ratio (brain to plasma AUC ratio) / t1/2 Brain (terminal half-life) / t1/2 Plasma (terminal half-life) / Brain level at 4 h post-treatment: i.p. 5 mg/kg; for Cmax (mean ± SEM) Brain: normalized to free base dose; for Sex-dependent difference: Brain Total exposure (AUC) / Sex-dependent difference: Plasma Total exposure (AUC): standard t-test, F female, M male, NS not statistically different; for Brain level at 4 h post-treatment: LLOQ 5.0 ng/ml
male mice = assay: Forced swim test immobility time 24 h after i.p. treatment; type: in vivo, mouse; conditions: for Minimal effective dose to reduce immobility time in the forced swim test: 24 h after injection; for Shape of dose response curve for forced swim test immobility: tested range up to 100 mg/kg
[2] = target: N-methyl-D-aspartate receptor (NMDAR); conditions: cited from earlier work
[3] = i.p. administration to mice, ref [19], cited from earlier work
mice = conditions: i.p., cited from earlier work
[4] = i.p.; ref [4]; cited from earlier work
rats = conditions: 10 mg/kg, i.p., ref [26]; cited from earlier work

| SMILES | Cmax (mean ± SEM) Brain ([1]; female CD-1 mice) | B:P ratio (brain to plasma AUC ratio) ([1]; female mice) | t1/2 Brain (terminal half-life) ([1]; female mice) | t1/2 Plasma (terminal half-life) ([1]; female mice) | Cmax (mean ± SEM) Brain ([1]; male CD-1 mice) | B:P ratio (brain to plasma AUC ratio) ([1]; male mice) | t1/2 Brain (terminal half-life) ([1]; male mice) | t1/2 Plasma (terminal half-life) ([1]; male mice) | Sex-dependent difference: Brain Total exposure (AUC) [1] | Sex-dependent difference: Plasma Total exposure (AUC) [1] | also measured |
| --- | --- | --- | --- | --- | --- | --- | --- | --- | --- | --- | --- |
| N[C@@]1(c2ccccc2Cl)C[C@H](O)CCC1=O [(2R,4R)-HNK] | 490 ± 26.4 ng/g•mg/kg | 1.2 | 29 min | 29 min | 431 ± 43.5 ng/g•mg/kg | 1.3 | 38 min | 35 min | M > F | M > F |  |
| N[C@@]1(c2ccccc2Cl)C[C@@H](O)CCC1=O [(2R,4S)-HNK] | 495 ± 28.7 ng/g•mg/kg | 1.0 | 15 min | 44 min | 758 ± 21.4 ng/g•mg/kg | 1.1 | 32 min | 39 min | M > F | M > F | Brain level at 4 h post-treatment ([1]; females, but not males): below LLOQs |
| N[C@@]1(c2ccccc2Cl)CC[C@@H](O)CC1=O [(2R,5R)-HNK] | 152 ± 8.8 ng/g•mg/kg | 1.4 | 28 min | 31 min | 142 ± 5.6 ng/g•mg/kg | 1.2 | 27 min | 30 min |  | M > F |  |
| N[C@@]1(c2ccccc2Cl)CC[C@H](O)CC1=O [(2R,5S)-HNK] | 154 ± 3.9 ng/g•mg/kg | 1.0 | 27 min | 29 min | 106 ± 6.8 ng/g•mg/kg | 0.9 | 27 min | 28 min | F > M | F > M |  |
| N[C@@]1(c2ccccc2Cl)CCC[C@@H](O)C1=O [(2R,6R)-HNK, (2R,6R)-hydroxynorketamine] | 530 ± 17.2 ng/g•mg/kg | 1.3 | 34 min | 36 min | 380 ± 19.3 ng/g•mg/kg | 1.3 | 34 min | 38 min | F > M | F > M | Minimal effective dose to reduce immobility time in the forced swim test (male mice): 10 mg/kg; Shape of dose response curve for forced swim test immobility (male mice): did not demonstrate U-shaped dose responses; Ki ([2]; read-out: Ki, potency to bind or inhibit NMDARs, ref [4],[19],[31]-[35]): > 100 µM; Time of peak plasma levels ([3]; plasma collected at 2.5 and 5 min post-injection): 2.5 min; Time of peak brain levels [3]: 5 min; Lowest dose reducing forced swim test immobility time (mice; ref [4]): 5 mg/kg; Effect on forced swim test immobility time (mice; mice, 10 mg/kg, ref [17]): reduced forced swim test immobility time; Lowest dose reducing escape failures in the learned helplessness test [4]: 3 mg/kg; Reversal of learned helplessness (rats): reversed learned helplessness |
| N[C@@]1(c2ccccc2Cl)CCC[C@H](O)C1=O [(2R,6S)-HNK] | 166 ± 12.3 ng/g•mg/kg | 0.7 | 23 min | 47 min | 173 ± 5.4 ng/g•mg/kg | 0.6 | 43 min | 55 min | M > F | M > F | Brain level at 4 h post-treatment ([1]; females, but not males): below LLOQs; Brain Cmax and AUC compared to equivalent dosing with (2R,6R)-HNK ([1]; from Table 1): approximately two-fold lower; Minimal effective dose to reduce immobility time in the forced swim test (male mice): 1 mg/kg; Shape of dose response curve for forced swim test immobility (male mice): U-shaped dose response curves; Ki ([2]; read-out: NMDAR binding affinity, ref [31]): > 100 µM |
| N[C@]1(c2ccccc2Cl)C[C@H](O)CCC1=O [(2S,4R)-HNK] | 190± 13.7 ng/g•mg/kg | 1.0 | 21 min | 47 min | 160 ± 10.2 ng/g•mg/kg | 0.9 | 23 min | 48 min |  |  | Brain level at 4 h post-treatment ([1]; both sexes): below LLOQs |

Source: PMC9926475 (ACS chemical neuroscience, 2022)
